Patent US20240409534A1, “CRYSTAL FORM OF METHYLPYRAZOLE-SUBSTITUTED PYRIDOIMIDAZOLE COMPOUND AND PREPARATION METHOD THEREFOR” (priority 2021, published 2024)
Like-named read-outs stand apart in the source and are kept apart here.

Columns and labels:
[1] = Pharmacokinetic evaluation in SD rats, intravenous and intragastric (Experimental Embodiment 3); type: in vivo; conditions: rat, plasma; for bioavailability: intragastric administration, read-out: drug bioavailability; for Cmax: read-out: peak concentration (Cmax); for Tmax: read-out: peak time (Tmax); for Vd: read-out: apparent volume of distribution at steady state (Vdss); for half-life: read-out: elimination half-life (T1/2) (converted); for clearance: read-out: plasma clearance (Cl)
[2] = system: Renca subcutaneous xenograft tumor; assay: In vivo antitumor activity, Renca subcutaneous xenograft tumor model; parameters: species or system Balb/c mice
Method: Female Balb/c mice (6 to 8 weeks old)
Mouse renal carcinoma Renca cells (ATCC-CRL-2947) were adherent cultured in vitro under the conditions of RPMI 1640 Medium with 10% fetal bovine serum, 0.1 mM non-essential amino acids, 1 mM sodium pyruvate, 2 mM glutamine, 100 U/mL penicillin and 100 µg/mL streptomycin, and cultured in a 37° C., 5% CO2 incubator. Routine passage was performed twice a week. When the cell saturation density was 80% to 90% and the number of cells reached the required level, the cells were collected, counted, and inoculated.
0.1 mL (1×10^5) Renca cells were subcutaneously inoculated on the dorsal side of the right upper limb of each mouse, and grouping and administration were initiated when the average tumor volume reached approximately 50 to 80 mm^3.
Tumor diameters were measured twice a week with vernier calipers. […]
The antitumor efficacy of compounds was evaluated by TGI (%) or relative tumor proliferation rate T/C (%). […] Relative tumor volume (RTV) was calculated according to the results of tumor measurement, and the formula was RTV=Vt/V0, where V0 was the tumor volume measured at the time of grouping and administration (i.e. D0), Vt was the tumor volume of the corresponding mouse in one measurement, and the TRTV and CRTV data were collected on the same day. […]

Ba/F3-TEL-FLT1 (VEGFR1) = assay: In vitro proliferation of BaF3 cell line, Ba/F3-TEL-FLT1; type: cell-based
Method: (§1) The mother solution was prepared into a total of 9 concentration gradients (10.0000 mM, 2.5000 mM, 0.6250 mM, 0.1563 mM, 0.0391 mM, 0.0098 mM, 0.0024 mM, 0.0006 mM and 0.0002 mM) in a 4-fold dilution and stored in a 96-well plate (Beaver, Suzhou), while the same volume of DMSO solvent was used as a negative control. • 1. Cell suspension in logarithmic growth phase was taken and inoculated in a white 96-well cell culture plate (Corning 3917, NY, USA) with a volume of 95 μL per well (2000 cells/well). • 2. Diluted medium-compound mixture was added in a volume of 5 μL per well, respectively, and the final concentration of DMSO in Ba/F3-TEL-FLT1 (VEGFR1), Ba/F3-TEL-FLT4 (VEGFR3) and Ba/F3-TEL-VEGFR2 cells was 0.1%.
(§2) • 3. The plate was incubated in a 37° C., 5% CO2 incubator for 72 h. • 4. The proliferation inhibitory activity and data analysis of the compound by CellTiter-Glo method were the same as in Experimental embodiment 1.

Ba/F3-TEL-VEGFR2 = assay: In vitro proliferation of BaF3 cell line, Ba/F3-TEL-VEGFR2; type: cell-based; conditions: Ba/F3-TEL-VEGFR2, 72 h
Method: as §1, §2

[3] = po, female SD rats, single intragastric administration, 10 mg/kg
[4] = po, female SD rats, single intragastric administration, 30 mg/kg
[5] = po, female SD rats, single intragastric administration, 100 mg/kg
[6] = po, male SD rats, single intragastric administration, 10 mg/kg
[7] = po, male SD rats, single intragastric administration, 30 mg/kg
[8] = po, male SD rats, single intragastric administration, 100 mg/kg
[9] = female SD rats, single intravenous injection of 1 mg/kg
[10] = male SD rats, single intravenous injection of 1 mg/kg

SMILES: CS(=O)(=O)O.Cn1cc(-c2ccn3c(-c4cc(NS(C)(=O)=O)nc(-c5ccc(F)cc5F)c4)cnc3c2)cn1
- bioavailability ([1]; po, female SD rats, 10 mg/kg): 50.3%
- AUC(0-t) [1, 3]: 24.8 µM·h
- Cmax [1, 3]: 9.17 µM
- Tmax [1, 3]: 40 min
- AUC(0-t) [1, 4]: 65.6 µM·h
- Cmax [1, 4]: 24.5 µM
- Tmax [1, 4]: 60 min
- AUC(0-t) [1, 5]: 125 µM·h
- Cmax [1, 5]: 27.4 µM
- Tmax [1, 5]: 30 min
- bioavailability ([1]; po, male SD rats, 10 mg/kg): 18%
- AUC(0-t) [1, 6]: 7.15 µM·h
- Cmax [1, 6]: 3.78 µM
- Tmax [1, 6]: 30 min
- AUC(0-t) [1, 7]: 38.2 µM·h
- Cmax [1, 7]: 16.7 µM
- Tmax [1, 7]: 60 min
- AUC(0-t) [1, 8]: 113 µM·h
- Cmax [1, 8]: 19.9 µM
- Tmax [1, 8]: 50 min
- AUC(0-t) [1, 9]: 4.93 µM·h
- Vd [1, 9]: 0.366 L/kg
- half-life [1, 9]: 45.9 min
- clearance [1, 9]: 7.03 mL/min/kg
- AUC(0-t) [1, 10]: 3.98 µM·h
- Vd [1, 10]: 0.419 L/kg
- half-life [1, 10]: 40.5 min
- clearance [1, 10]: 8.78 mL/min/kg
- effect on tumor growth versus solvent control group ([2]; Renca model, 100 mg/kg, p=0.031): significant inhibitory effect on tumor growth
- TGI % (last administration on day 19) ([2]; Renca xenograft tumor model, 100 mg/kg QD, female Balb/c mice): 72%
- Maximum inhibition (Ba/F3-TEL-FLT1 (VEGFR1); 72 h): 99.34%
- Minimum inhibition (Ba/F3-TEL-FLT1 (VEGFR1); 72 h): −12.05%
- IC50 (Ba/F3-TEL-FLT1 (VEGFR1); Mus musculus, BaF3, 72 h, read-out: Relative IC50): 46 nM
- Maximum inhibition (Ba/F3-TEL-VEGFR2): 99.99%
- Minimum inhibition (Ba/F3-TEL-VEGFR2): 8.23%
- IC50 (Ba/F3-TEL-VEGFR2; Mus musculus, BaF3, read-out: Relative IC50): ~9.7 nM
